The structures appear in SMILES notation.

Holding throughout (assay type): physicochemical
Data set [1] in a line: Boiling point, ASTM D1120, ASTM D6352. The method, then: (§1) Specifications of Product. Key specifications of RKBA-14, RKBA17, RKBA-22 and RKBA28/33 products were determined by various ASTM methods.
Data set [2] is described as follows: I2 number, USP-NF-2022, issue 1. As for the experimental part:
as §1

Data set [3] is described as follows: Viscosity, ASTM D445. The method, then: as §1
Data set [4] in a line: Flash point, ASTM D93. As for the experimental part: as §1
A short description of data set [5]: Density, ASTM D1209. The method, then: as §1
The nature of data set [6]: RI of upcycled oils. As for the experimental part:
as §1

A short description of data set [7]: Pour point, ASTM D6749. As to conditions: neat oil. The method, then: as §1
The nature of data set [8]: Freezing point, ASTM S2386. As for the experimental part: as §1

As for `CCCCCCC(CCCCC)CCCCC` [RKBA-17], the Boiling point in data set [1] came out at 288 ± 12 °C. This compound also returned a 12 number in data set [2] below 0.3g/ g/100 g. In addition, the “Viscosity at 40° C.” value in data set [3] stood at 3.42 cSt. This compound also yielded a Flash point in data set [4] of 121 ± 13° ° C. The same compound came in with a Density in data set [5] (at 60º F) of 0.7895 g/mL. Further, the RI in data set [6] stood at 1.4.
In the case of `CCCCCCCCCCCC(CCCCC)CCCCC` [RKBA-22], in data set [1], the Boiling point was 319 ± 5 °C. Moreover, the “Viscosity at 20° C.” value in data set [3] (20° C.) came out at 11.35 cSt. For the same compound, the “Viscosity at 40° C.” value in data set [3] is reported as 6.31 cSt. Besides, the “Viscosity at 100° C.” value in data set [3] (100° C.) worked out at 1.96 cSt. The “Pour Point” value in data set [7] was −21 °C. Moreover, the Flash point in data set [4] is 153 ± 8° ° C. For the same compound, the Density in data set [5] (at 25° C.) came out at 0.8049 g/mL. The compound further returned a Freezing point in data set [8] of −10.5 ± −4 °C.

The values above are taken from patent US20260191749A1, “COMPOSITION AND PROCESS OF MAKING BIO-BASED UPCYCLED OILS IN FLOW REACTORS” (RiKarbon, Inc., priority 2022, published 2026).
